Test results published in patent US20190062749A1, “SIRNA, PHARMACEUTICAL COMPOSITION AND CONJUGATE WHICH CONTAIN SIRNA, AND USES THEREOF” (priority 2015, published 2019).
Read-outs that look alike come from different tables or passages of the source. Oligonucleotides are written 5' to 3', each unit as a sugar letter and its base; * is a phosphorothioate linkage, no mark a phosphodiester; rarer units and linkages stand in square brackets, end groups in braces. Plain capitals give the bases only. d = 2'-deoxy (DNA); m = 2'-O-methyl; r = 2'-OH (RNA); f = 2'-fluoro

Tests used:
[1] = Stability of siRNAs in human plasma in vitro (gel, ratio of the longest fragments RL); type: in vitro ADME
Description: The siRNAs (20 μM, 10 μl) obtained in Preparation Example 1 were incubated with 50% human plasma (HP) at 37° C. in vitro for a certain time and samples were taken therefrom. Specifically, 10 μl samples were taken at 0, 2, 4, 6, 8, 24 and 48 hours respectively and immediately snap frozen in liquid nitrogen, followed by cryopreservation at −80° C. for future use. 20 wt % non-denaturing polyacrylamide gel was formulated, and 10 μl 5-fold diluted above samples (dilution solution: 1×PBS buffer at pH 7.4) and 4 μl loading buffer (20 mM EDTA, 36 wt % glycerol, 0.06 wt % bromophenol blue) were mixed and then loaded into the gel to perform electrophoresis for about 60 minutes under 80 mA constant current. After electrophoresis finished, the gel was stained with 1× Sybr Gold dye (Invitrogen, Cat. 11494) for 15 minutes followed by imaging.
The ratio of the longest fragments remained after incubating the test siRNAs and control siRNAs with human plasma to the longest fragments of the siRNAs without the treatment of human plasma (i.e., the markers shown in FIG. 3) (also referred to as ratio of the longest fragments, RL) is calculated by reading the grayscale values quantitatively.

[2] = prior application CN102140461B; cited from earlier work
HBV gene = details: prior application CN102140461B; cited from earlier work

Substance	RL (ratio of the longest fragments) 0 h ([1]; 50% human plasma, 37° C., 0 h) [%]	RL (ratio of the longest fragments) 2 h ([1]; 50% human plasma, 37° C., 2 h) [%]	RL (ratio of the longest fragments) 4 h ([1]; 50% human plasma, 37° C., 4 h) [%]	RL (ratio of the longest fragments) 6 h ([1]; 50% human plasma, 37° C., 6 h) [%]	RL (ratio of the longest fragments) 8 h ([1]; 50% human plasma, 37° C., 8 h) [%]	RL (ratio of the longest fragments) 24 h ([1]; 50% human plasma, 37° C., 24 h) [%]	RL (ratio of the longest fragments) 48 h ([1]; 50% human plasma, 37° C., 48 h) [%]	stability in blood [2]	activity at cell level compared to unmodified siRNA CA1 (HBV gene)	band position / full-length state on gel (FIG. 3) ([1]; 50% human plasma, up to 48 h)	RL (ratio of the longest fragments) 0 h [1] [%]	RL (ratio of the longest fragments) 2 h [1] [%]	RL (ratio of the longest fragments) 4 h [1] [%]	RL (ratio of the longest fragments) 6 h [1] [%]	RL (ratio of the longest fragments) 8 h [1] [%]	RL (ratio of the longest fragments) 24 h [1] [%]	RL (ratio of the longest fragments) 48 h [1] [%]
1d: sense CmCmUmUmGAGGCmAUmACmUmUmCmAAAdTdT, antisense UUmUfGAAGUfAUfGCCUfCAAGGdTdT (sense mCmCmUmUrGrArGrGmCrAmUrAmCmUmUmCrArArAdTdT; antisense rUmUfUrGrArArGfUrAfUrGrCrCfUrCrArArGrGdTdT)	100.0	90.0	97.2	93.3	87.5	55.7	65.1										
2d: sense CmCmUmUmGAGGCmAUmACmUmUmCmAAAdTdT, antisense UfUUfGAAGUfAUfGCCUfCAAGGdTdT (sense mCmCmUmUrGrArGrGmCrAmUrAmCmUmUmCrArArAdTdT; antisense fUrUfUrGrArArGfUrAfUrGrCrCfUrCrArArGrGdTdT)	100.0	97.6	88.2	82.2	84.5	82.1	78.4										
3d: sense CmCmUmUmGAGGCmAUmACmUmUmCmAAAdTdT, antisense UfUmUGAAGUfAUfGCCUfCAAGGdTdT (sense mCmCmUmUrGrArGrGmCrAmUrAmCmUmUmCrArArAdTdT; antisense fUmUrUrGrArArGfUrAfUrGrCrCfUrCrArArGrGdTdT)	100.0	96.6	99.6	93.3	87.1	75.0	41.6										
8d: sense CmCmUmUmGAGGCmAUmACmUmUmCmAAAdTdT, antisense UfUmUfGAAGUAUfGCCUfCAAGGdTdT (sense mCmCmUmUrGrArGrGmCrAmUrAmCmUmUmCrArArAdTdT; antisense fUmUfUrGrArArGrUrAfUrGrCrCfUrCrArArGrGdTdT)	100.0	78.2	72.7	59.7	48.3	34.0	25.9										
14d: sense CmCmUmUmGAGGCmAUmACmUmUmCmAAAdTdT, antisense UfUmUfGAAGUfAUfGCCUCAAGGdTdT (sense mCmCmUmUrGrArGrGmCrAmUrAmCmUmUmCrArArAdTdT; antisense fUmUfUrGrArArGfUrAfUrGrCrCrUrCrArArGrGdTdT)	100.0	94.6	90.0	85.6	86.0	78.0	84.6										
A4: siRNA of CN102140461B; sense CmCmUmUmGAGGCmAUmACmUmUmCmAAAdTdT, antisense UfUmUfGAAGUfAUfGCCUfCAAGGdTdT (sense CCUUGAGGCAUACUUCAAATT; antisense UUUGAAGUAUGCCUCAAGGTT; sense: DNA at T, 2'-O-methyl at CU, RNA at AG, backbone not given here; antisense: sugars from the 5' end fmfrrrrfrfrrrfrrrrrdd, backbone not given here) [reference compound]	100.0	97.5	93.7	106.0	91.7	90.0	81.2	increased stability in blood	substantially equal inhibitory activity as that of siRNA CA1	band thereof significantly shifts downward gradually							
NC-bas: negative control siRNA; sense UmUmCmUmCmCmGAACmGUmGUmCmACmGUmdTdT, antisense ACmGUfGACfACfGUfUfCfGGAGAAdTdT (sense UUCUCCGAACGUGUCACGUTT; antisense ACGUGACACGUUCGGAGAATT; chemistry not fully specified) [reference compound]											100.0	95.1	89.8	86.8	85.3	91.1	90.8
NC-pos: negative control siRNA; sense UmUmCmUmCCGAAmCGmUGmUmCmAmCGUdTdT, antisense AfCmGfUGACAfCGfUUCGfGAGAAdTdT (sense UUCUCCGAACGUGUCACGUTT; antisense ACGUGACACGUUCGGAGAATT; chemistry not fully specified) [reference compound]											100.0	93.4	95.9	84.9	88.6	87.1	90.0
NC: negative control siRNA; sense UUCUCCGAACGUGUCACGUdTdT, antisense ACGUGACACGUUCGGAGAAdTdT (sense UUCUCCGAACGUGUCACGUTT; antisense ACGUGACACGUUCGGAGAATT; further chemistry not given here) [reference compound]											100.0	83.9	69.7	58.4	52.6	36.2	26.0
X2M2(S++): sense CmCmUmUmGAGGCmAUmACmUmUmCmAAAdT-s-dT, antisense UfUmUfGAAGUfAUGCCUfCAAGGdT-s-dT (sense CCUUGAGGCAUACUUCAAAT; antisense UUUGAAGUAUGCCUCAAGGT; chemistry not fully specified)	100.0	101.5	98.2	98.6	93.0	92.1	90.9										
X2M2(S−−): sense CmCmUmUmGAGGCmAUmACmUmUmCmAAAdTdT, antisense UfUmUfGAAGUfAUGCCUfCAAGGdTdT (as printed in the source, key not given here)	100.0	111.3	97.5	90.2	96.1	109.1	93.9										
